Activity calls are given as the source filed them. The rule behind the calls is not given here.
Columns and labels:
[1] = target: T1, Nucleotide-binding oligomerization domain-containing protein 1 (Homo sapiens) (UniProt Q9Y239); assay: Antagonist activity at human NOD1 expressed in HEK-Blue cells assessed as decrease in SEAP secretion incubated for 3 hrs followed by C12-iE-DAP stimulation for 20 hrs by spectrophotometry; type: cell-based; conditions: HEK-Blue hNOD1, filed as antagonist, time 23.0 hrs
T1 sequence (whole entry): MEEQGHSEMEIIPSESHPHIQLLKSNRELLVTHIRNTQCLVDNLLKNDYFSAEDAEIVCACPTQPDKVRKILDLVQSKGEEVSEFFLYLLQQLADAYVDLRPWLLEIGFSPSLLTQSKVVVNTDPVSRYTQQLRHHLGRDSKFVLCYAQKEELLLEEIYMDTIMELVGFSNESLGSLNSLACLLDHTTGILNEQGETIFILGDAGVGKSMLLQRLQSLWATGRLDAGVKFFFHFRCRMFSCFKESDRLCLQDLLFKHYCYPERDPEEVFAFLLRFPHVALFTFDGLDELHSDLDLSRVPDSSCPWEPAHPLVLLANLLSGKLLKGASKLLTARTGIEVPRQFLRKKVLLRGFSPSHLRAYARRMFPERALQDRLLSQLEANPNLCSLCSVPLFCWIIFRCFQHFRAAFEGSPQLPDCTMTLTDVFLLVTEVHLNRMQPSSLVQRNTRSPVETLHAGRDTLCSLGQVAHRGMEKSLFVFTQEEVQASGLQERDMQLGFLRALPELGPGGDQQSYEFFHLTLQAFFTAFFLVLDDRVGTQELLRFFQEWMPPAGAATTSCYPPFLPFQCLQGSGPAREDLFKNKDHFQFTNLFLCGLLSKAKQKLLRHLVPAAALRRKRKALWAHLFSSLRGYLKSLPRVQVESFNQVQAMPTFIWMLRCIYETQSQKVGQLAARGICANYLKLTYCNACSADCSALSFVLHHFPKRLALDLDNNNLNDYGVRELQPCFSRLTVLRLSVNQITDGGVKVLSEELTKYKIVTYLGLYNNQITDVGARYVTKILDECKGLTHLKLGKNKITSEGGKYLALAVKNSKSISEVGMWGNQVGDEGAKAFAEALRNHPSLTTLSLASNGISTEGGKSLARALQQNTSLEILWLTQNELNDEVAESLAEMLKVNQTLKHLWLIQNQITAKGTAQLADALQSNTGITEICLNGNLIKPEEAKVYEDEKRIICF

[2] = MRT (infinity) in C57BL/6 mouse at 2 mg/kg, iv by LC-MS/MS analysis; type: ADME, organism-based; conditions: in vivo
[3] = target: T1, Nucleotide-binding oligomerization domain-containing protein 1 (Homo sapiens); assay: Antagonist activity at NOD1 in human THP-1 cells assessed as decrease in phosphorylated p65 level at 0.1 to 1 uM incubated for 1 hr followed by C12-iE-DAP stimulation for 30 mins by Western blot analysis; type: cell-based; conditions: filed as antagonist, dose 0.1-1 µM, time 1.5 hrs
[4] = target: T1, Nucleotide-binding oligomerization domain-containing protein 1 (Homo sapiens); assay: Antagonist activity at NOD1 in human THP-1 cells assessed as decrease in phosphorylated p38 level at 0.1 to 1 uM incubated for 1 hr followed by C12-iE-DAP stimulation for 30 mins by Western blot analysis; type: cell-based; conditions: filed as antagonist, dose 0.1-1 µM, time 1.5 hrs
[5] = target: T2, Nucleotide-binding oligomerization domain-containing protein 1 (Mus musculus) (UniProt Q8BHB0); assay: Antagonist activity at NOD1 in mouse BMDM cells assessed as decrease in phosphorylated JNK level at 0.1 to 1 uM incubated for 1 hr followed by C12-iE-DAP stimulation for 30 mins by Western blot analysis; type: cell-based; conditions: filed as antagonist, dose 0.1-1 µM, time 1.5 hrs
T2 sequence (whole entry): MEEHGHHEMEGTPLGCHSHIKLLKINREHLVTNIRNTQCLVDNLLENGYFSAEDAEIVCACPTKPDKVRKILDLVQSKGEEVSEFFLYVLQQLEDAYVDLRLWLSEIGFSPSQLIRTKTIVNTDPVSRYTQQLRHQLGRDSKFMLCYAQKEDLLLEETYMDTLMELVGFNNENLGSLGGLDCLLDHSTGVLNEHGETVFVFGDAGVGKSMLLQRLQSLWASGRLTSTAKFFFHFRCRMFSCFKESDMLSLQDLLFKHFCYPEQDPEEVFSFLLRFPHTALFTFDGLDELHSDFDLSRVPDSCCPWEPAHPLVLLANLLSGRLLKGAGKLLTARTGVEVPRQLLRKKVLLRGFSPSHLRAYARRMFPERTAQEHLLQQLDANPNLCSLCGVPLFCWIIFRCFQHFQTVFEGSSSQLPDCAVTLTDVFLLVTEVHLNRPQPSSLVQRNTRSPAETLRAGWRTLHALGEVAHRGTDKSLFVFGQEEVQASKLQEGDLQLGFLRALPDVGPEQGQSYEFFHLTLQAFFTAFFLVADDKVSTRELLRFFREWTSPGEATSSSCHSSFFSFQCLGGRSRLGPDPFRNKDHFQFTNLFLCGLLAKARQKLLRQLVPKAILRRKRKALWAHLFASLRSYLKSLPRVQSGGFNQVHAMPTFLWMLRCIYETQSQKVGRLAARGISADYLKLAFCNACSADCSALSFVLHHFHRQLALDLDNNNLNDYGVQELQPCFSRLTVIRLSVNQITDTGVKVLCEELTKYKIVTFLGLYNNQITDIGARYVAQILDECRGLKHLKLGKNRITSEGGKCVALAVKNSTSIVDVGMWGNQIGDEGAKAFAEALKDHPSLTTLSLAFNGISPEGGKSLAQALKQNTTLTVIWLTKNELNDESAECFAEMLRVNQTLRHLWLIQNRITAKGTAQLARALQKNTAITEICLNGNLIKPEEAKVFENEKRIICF

[6] = Volume of distribution at steady state in C57BL/6 mouse at 2 mg/kg, iv by LC-MS/MS analysis; type: ADME, organism-based; conditions: in vivo, read-out: Vdss
[7] = Anti-inflammatory activity in mouse BMDM cells assessed as decrease in IL-6 mRNA level at 0.1 uM pretreated for 1 hr followed by C12-iE-DAP stimulation for 2 hrs by RT-qPCR analysis relative to control; type: functional; parameters: scale not given: the % may be the effect or the level left; conditions: time 3 hrs
[8] = target: T2, Nucleotide-binding oligomerization domain-containing protein 1 (Mus musculus); assay: Antagonist activity at NOD1 in mouse BMDM cells assessed as decrease in phosphorylated RIP2 level at 0.1 to 1 uM incubated for 1 hr followed by C12-iE-DAP stimulation for 30 mins by Western blot analysis; type: cell-based; conditions: filed as antagonist, dose 0.1-1 µM, time 1.5 hrs
[9] = target: T1, Nucleotide-binding oligomerization domain-containing protein 1 (Homo sapiens); assay: Antagonist activity at NOD1 in human THP-1 cells assessed as decrease in phosphorylated RIP2 level at 0.1 to 1 uM incubated for 1 hr followed by C12-iE-DAP stimulation for 30 mins by Western blot analysis; type: cell-based; conditions: filed as antagonist, dose 0.1-1 µM, time 1.5 hrs
[10] = AUC (infinity) in C57BL/6 mouse at 2 mg/kg, iv by LC-MS/MS analysis; type: ADME, organism-based; conditions: in vivo
[11] = target: T2, Nucleotide-binding oligomerization domain-containing protein 1 (Mus musculus); assay: Antagonist activity at NOD1 in mouse BMDM cells assessed as decrease in phosphorylated p65 level at 0.1 to 1 uM incubated for 1 hr followed by C12-iE-DAP stimulation for 30 mins by Western blot analysis; type: cell-based; conditions: filed as antagonist, dose 0.1-1 µM, time 1.5 hrs
[12] = MRT (infinity) in C57BL/6 mouse at 20 mg/kg, po by LC-MS/MS analysis; type: ADME, organism-based; conditions: in vivo
[13] = Clearance in C57BL/6 mouse at 2 mg/kg, iv by LC-MS/MS analysis; type: ADME, organism-based; conditions: in vivo

Activity [1]: Dose-dependent-effect | MRT inf [2]: 2.76 min | inhibition [3]: Active | inhibition [4]: Active | inhibition [5]: Active | Vd [6]: 1.33 L/kg | inhibition [8]: Active | inhibition [9]: Active | AUC [10]: 75.3 ng·h/mL | inhibition [11]: Active | MRT inf [12]: 3.22 h | clearance [13]: 474 mL/min/kg
Compound: CS(=O)(=O)c1ccc2nc(Cl)n(-c3ccc(Cl)c(NS(=O)(=O)c4c(F)cccc4F)c3)c(=O)c2c1
Activity [7]: ~100%

— ChEMBL document CHEMBL6074678, “Selectively Antagonizing the NOD1-Mediated Inflammatory Signaling Pathway Mitigates the Gastric Inflammation Induced by Helicobacter pylori Infection” (J Med Chem, 2024)
